Measurements as given in patent publication US6022699A, “Myeloperoxidase assay of endotoxin-induced inflammation” (Alcon Laboratories, Inc., priority 1999, dated 2000).
Entries after “also recorded” stand apart in the source; their conditions may differ.

Key:
[1] = target: T1, Human sputum myeloperoxidase (HSMPO) (Homo sapiens, UniProt P05164); assay: Spectrophotometric (460 nm) assay of MPO-catalyzed oxidation of o-DA; format: biochemical
T1 construct: mature light and heavy chains from one precursor
T1 sequence (P05164 165-745): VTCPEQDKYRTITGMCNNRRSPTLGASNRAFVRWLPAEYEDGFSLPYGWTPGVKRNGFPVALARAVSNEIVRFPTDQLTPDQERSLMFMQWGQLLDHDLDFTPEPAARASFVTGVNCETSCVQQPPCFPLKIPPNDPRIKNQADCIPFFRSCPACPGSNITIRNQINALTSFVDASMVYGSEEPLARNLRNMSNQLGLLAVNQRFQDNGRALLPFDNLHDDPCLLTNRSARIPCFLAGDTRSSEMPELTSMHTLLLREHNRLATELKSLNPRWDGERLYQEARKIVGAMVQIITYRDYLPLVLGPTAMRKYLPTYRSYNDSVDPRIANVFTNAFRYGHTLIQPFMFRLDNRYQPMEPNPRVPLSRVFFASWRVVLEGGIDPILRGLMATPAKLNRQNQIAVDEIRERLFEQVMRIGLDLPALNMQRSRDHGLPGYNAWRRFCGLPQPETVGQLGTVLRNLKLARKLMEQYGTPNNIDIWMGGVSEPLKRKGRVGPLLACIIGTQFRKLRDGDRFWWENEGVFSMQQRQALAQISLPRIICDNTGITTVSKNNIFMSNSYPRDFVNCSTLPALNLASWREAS
Procedure: N-ethylmaleimide (NEM), o-DA (3,3'-dimethoxybenzidine dihydrochloride), HTA-Br, LPS (lipopolysaccharide, E. coli 0111:B4), heparin, dexamethasone,histopaque 1083 and histopaque 1119 were obtained from Sigma Chemical Company, St. Louis, Mo. Dextran-100 was a product of Crescent Chemical Company, Hauppauge, N.Y. Hydrogen peroxide (30%) was obtained from J. T. Baker and stored at 4° C. All other chemicals used were of the highest purity available. Human sputum myeloperoxidase (HSMPO) was obtained from Elastin Products Co., Pacific, Mo. The enzyme (2.4 mg solid) was dissolved in 2.4 mL of 50 mM potassium phosphate buffer (pH 6.0), and stored in 0.1 mL aliquots at -20° C., then diluted 10-fold with 50 mM potassium phosphate buffer (pH 6.0) to provide a HSMPO concentration of 0.1 mg/mL.
To evaluate potential assay interference by ASC, conditions were selected which permitted the spectrophotometric assessment of ASC effects on the extent of o-DA oxidation. This was accomplished using sub-saturating concentrations of H2 O2 (37 mM), 1.5 mM o-DA a nd excess enzyme. MPO activity was assayed at room temperature in a final volume of 3.0 mL containing 50 mM potassium phosphate buffer (pH 6.0), 37 mM H2 O2, and 1.5 mM o-DA. Reactions were initiated by addition of 2 mg HSMPO: (a) control reaction, (b) ASC (3.2 mM) added 3.6 minutes after initiation of the reaction, (c) ASC (32 mM) added just prior to the initiation of the reaction and (d) ASC (64 mM) added just prior to the initiation of the reaction.
The effect of GSH on o-DA oxidation by HSMPO was assessed in an analogous fashion. MPO activity was assayed at room temperature in 3.0 mL of 50 mM potassium phosphate (pH 6.0), supplemented with 37 mM H2 O2, and 1.5 mM o-DA. (a) HSMPO (2 mg) was added 2 minutes after addition of NEM (6.6 mM) and GSH (1.65 mM), (b) NEM (6.6 mM) was added 5 minutes prior to addition of HSMPO (2 mg) (c) GSH (3.3 mM) was added 3.5 minutes after initiation of the reaction by addition of HSMPO (2 mg), (d) GSH (0.33 mM) was added just prior to initiation of the reaction with HSMPO (2 mg) with NEM (6.6 mM) added 20 seconds following initiation of the reaction, (e) GSH (0.33 mM) was added just prior to initiation of the reaction with HSMPO (2 mg) with NEM (6.6 mM) added 1.0 minute following initiation of the reaction, and (f) GSH (1.65 mM) was added just prior to initiation of the reaction.

[2] = tested on: PMN infiltrates within the different compartments of the eye; assay: Histopathologic evaluation of PMN infiltrates in eye sections; format: in vivo, Lewis rat; conditions: topical dexamethasone-treated animals
Procedure: Inhibition of PMN influx into ocular tissue of the Lewis rat by dexamethasone was evaluated as follows. Dexamethasone suspensions were prepared in a carbopol ophthalmic suspension vehicle at concentrations of 0.0033%, 0.01%, 0.033%, 0.04% and 0.10%, w/v. A 5 μL aliquot of test drug or vehicle was applied topically to each eye of the experimental animals 24, 20, and 4 hours prior to, at the time of, and 4 and 20 hours after LPS foot pad injection. Twenty-four (24) hours following LPS administration, eyes were enucleated, quickly frozen on dry ice and stored at -70° C. until used for tissue extraction and assessment of MPO activity. Alternatively, eyes were enucleated and fixed in a solution of phosphate buffered (40 mM) formalin (4%), pH 6.0. Eyes were embedded in paraffin and sectioned. Using light microscopy, hematoxylin- and eosin-stained sections were examined for the presence and distribution of PMN infiltrates within the different compartments of the eye. Infiltrates were ranked subjectively on a scale ranging from 0 to 5, where 0=not remarkable, 1=minimal, 2=slight/mild, 3=moderate, 4=moderately severe, and 5=severe/high.

SMILES: O=C1O[C@H]([C@@H](O)CO)C(O)=C1O [ASC, ascorbic acid]
- effect on the 460 nm absorbance attained ([1]; ASC 3.2 mM added to control reaction when enzyme catalysis had ceased): little effect
- development of absorbance at 460 nm ([1]; ASC 64 mM added just prior to initiation): fully abolished
- interference in the spectrophotometric assay of MPO, ASC compared with GSH ([1]; concentration dependent): more effective than GSH

SMILES: N[C@@H](CCC(=O)N[C@@H](CS)C(=O)NCC(=O)O)C(=O)O [GSH, glutathione]
- increase in 460 nm absorbancy ([1]; GSH 1.65 mM present at the initiation of the MPO reaction): fully prevented
- change in absorbancy ([1]; GSH 3.3 mM added to control peroxidase reactions that had ceased): little change in absorbancy

SMILES: CCN1C(=O)C=CC1=O [NEM, N-ethylmaleimide]
- inhibitory effect of GSH ([1]; NEM 6.6 mM added together with GSH 1.65 mM 2 minutes prior to addition of enzyme): fully abolished
- effect on MPO activity ([1]; NEM alone (6.6 mM), absence of GSH): does not affect MPO catalysis; also recorded: little effect on MPO activity

SMILES: C[C@@H]1C[C@H]2[C@@H]3CCC4=CC(=O)C=C[C@]4(C)[C@@]3(F)[C@@H](O)C[C@]2(C)[C@@]1(O)C(=O)CO [dexamethasone]
- PMNs in anterior and posterior compartments and associated ocular tissue (histopathology) [2]: dose dependent decline in PMNs
